From a melting point compilation (Tetko et al.; mined from patent text by program, amines drawn as free bases though some values may be those of a salt)

SMILES | melting point
CCOC(=O)c1c[nH]nc1NCc1ccc(OC)c(OC2CCCC2)c1 | 102 to 104 °C
CC(CCO)c1ccc(-c2ccccc2)c(F)c1 (stereo not given) | 72 °C
O=C(O)c1ccc2c(c1)C=C(CCN1CCCC1)CC2 | 202 to 203 °C
CC(C)c1ccc2c(c1)NC(=S)C2=O | 169 to 180 °C
Cc1cccc2c(C(=O)C(=O)NC3=CC(=O)OC3)c(C)n(Cc3ccc(Cl)cc3)c12 | 283 to 285 °C
CCON=C(CC)C1=C(O)CC(c2ccc3c(c2)N(COC)C(=O)CO3)CC1=O (stereo not given) | 101 to 103 °C
CCOC(=O)c1cc(C(=O)CBr)[nH]n1 | 174 to 176 °C
Clc1cc(N2CCCC2)nc(NC23CC4CC(CC(C4)C2)C3)n1 | 178 to 180 °C
CCOC(=O)c1ccc([N+](=O)[O-])cc1F | 70 to 73 °C
CC(=O)NCCC1CCc2ccc3nn(C)cc3c21 (stereo not given) | 123 to 125 °C
N#Cc1ccc2cc(-c3cccc(O)c3)oc2c1 | 225 to 227 °C
Oc1cc(OCc2ccccc2)cc(OCc2ccccc2)c1C[C@H](O)[C@@H](O)c1ccccc1 | 121 to 123 °C
CCCC(=O)c1nc(CCC)[nH]c1C#N | 94 to 95 °C
CC(Oc1ccc(Cl)cc1Cl)c1ccnc2ncnn12 (stereo not given) | 137 to 138 °C
O=C1[C@H]2CCC[C@H]2N(C(=O)CCCCBr)c2ccccc2N1Cc1ccccc1 (relative stereo) | 134 to 135 °C
CC(C)(C)[Si](C)(C)OCCn1cc([N+](=O)[O-])cn1 | 63 to 64 °C
Cc1c(CN(C)CCc2ccc(NS(C)(=O)=O)cc2)oc2ccc([N+](=O)[O-])cc12 | 124 °C
CC(=O)C1CCC2C3CCC4CC=CCC4(C)C3C(OC(=O)CI)CC12C (stereo not given) | 127 to 129 °C
CC1COc2c(N3CCC(CN)C3)c(F)cc3c(=O)c(C(=O)O)cn1c23 (stereo not given) | 213 to 216 °C
O=C(Cl)c1ccccc1SCc1ccccc1 | 113 to 116 °C
COC(=O)C1=C(C)NC(C)=C(C)C1c1ccccc1 (stereo not given) | 120 °C
C[Si](C)(C)C#Cc1cccc2ccccc12 | 41 to 43 °C
COc1cccc(OC)c1CN1C(=O)C2CCCN2c2ncccc21 (stereo not given) | 200 to 202 °C
Cc1c(C)c2c(c(C)c1O)SC(C)O2 (stereo not given) | 125 to 127 °C
Cc1nn(C2CCOC2)c(N)c1C#N (stereo not given) | 134 to 135 °C
COc1ccc(CCN(C)C)c2[nH]c(=S)[nH]c12 | 213 to 216 °C

SMILES | melting point
CCOCc1nc2c(N)nc3cc(N4CCCC4=O)ccc3c2n1CCCOC(C)C | 165 to 167 °C
COc1ccc2c(-c3ccc(C#Cc4ccccc4)cc3)cc(=O)oc2c1 | 178 to 180 °C
COC(=O)C1(C)Cc2c([nH]c3ccc(OC)cc23)C(c2ccccc2)N1 (stereo not given) | 172 to 175 °C
COCc1ccc(Cl)cc1C(=O)OC | 44 to 45 °C
CCCCCCc1sc(C(=O)O)c2c1-c1c(cnn1C)CC2 | 242 to 243 °C
CCCCNC(=O)C(C)Oc1ccc(COc2ccc(Cl)cc2)cc1 (stereo not given) | 98 °C
CCNCCc1c[nH]c2ccc(Cn3cncn3)cc12 | 106 to 107 °C
CC(=O)Nc1nnc2c3c(c(N4CCOCC4)nn12)CCCC3 | 147 to 149 °C
O=C(O)CCC(=O)c1ccc(N2CCCCC2)cc1 | 150 to 151 °C
CC(=O)c1ccc(-c2cccnc2)s1 | 104 to 105 °C
COc1ccc(C2=NOC3(CCOC3=O)C2)cc1OC1CCCC1 (stereo not given) | 152 to 153 °C
Cn1nc(C#N)c(Nc2ccc(Br)cc2[N+](=O)[O-])n1 | 162 to 164 °C
O=C1COc2ccc(C3=Nc4ccccc4SC3c3ccccc3Cl)cc2N1 (stereo not given) | 195 to 200 °C
CCOC(=O)c1cn(CCF)c2nc(N3CCC(NC(C)=O)C3)c(F)cc2c1=O (stereo not given) | 269 to 270 °C
O=C1C(=O)c2ccccc2C2=C1SCC1(CCN(C(=O)CSc3ccccc3)CC1)O2 | 155 to 157 °C
Oc1ccc(-c2cc3ccccc3[nH]2)c(O)c1 | 188 °C
Cc1nc(NCCN2CCOCC2)c2nc(-c3ccccc3)cc-2[nH]1 | > 280 °C
CC(C)(C=NO)n1ccnc1 | 117 to 120 °C
CC1CCN(c2c(F)c(N)c3c(=O)c(C(=O)O)cn(C4CC4)c3c2F)CC(C)(C)C1 (stereo not given) | 148 to 150 °C
CCOC(=O)Cc1nc2cc(C)ccc2o1 | 68 to 69 °C
NC(=NO)c1ccc(-c2ccc(N)cc2)o1 | 180 to 183 °C
COc1ccc(-c2c(CCN3CCN(c4cc(C)ccn4)CC3)c3cccc4c3n2CCC4)cc1 | 120 °C
CNCC1Cc2cc(-c3ccccc3)cc(-c3ccc(F)cc3)c2O1 (stereo not given) | > 250 °C
COCCNC(=O)Nc1ccc([N+](=O)[O-])cc1O | 190 to 191 °C
CCOC(=NC(=O)c1ccc(Br)cc1)N1Cc2ccccc2-c2ccccc2C1 | 116 to 117 °C

Second part, the compound after the results:

melting point | SMILES
123 to 125 °C | CCSc1cc(C)nc(SCC)c1NC(=O)CCCSc1nc2ccccc2o1
161 to 164 °C | CC(=O)OC1=CCc2c(Oc3ccc(NC(=O)c4ccc(Cl)c(Cl)c4)cn3)cccc21
139 to 140 °C | Cc1oc(-c2ccco2)nc1COc1ccc(C=O)cn1
203 to 206 °C | Cc1cc(Cn2nc(C(F)(F)C(F)(F)F)nc2C(F)(F)F)ccc1NC(=O)c1cccc(Cl)c1C(=O)NC(C)(C)C=NO
120 to 122 °C | CCOC(=O)Cc1c(-c2ccc(Cl)cc2)nn(-c2ccccc2)c1-c1ccc(Cl)cc1
150 to 155 °C | c1ccc(-c2nnn[nH]2)c(-c2ccc(CNc3ccnc4ccnn34)cc2)c1
105 to 106 °C | COCCn1cc(C(=O)NCc2ccc(Cl)cc2)c(=O)c2cc(CN(C)C[C@@H](O)c3ccccc3)sc21
230 to 231 °C | CCCOc1ccccc1-c1nc(NC(C)=O)cc(=O)[nH]1
93 to 94 °C | CCOc1nn(-c2ccc(C(F)(F)F)cn2)cc1CCCOc1ccc(CCC(=O)O)cc1OC(C)C
263 °C | Cc1ccc(N2C(=O)C(O)=C(C(=O)c3ccc(C(C)C)cc3)C2c2ccc(Cn3cccn3)cc2)nn1 (stereo not given)
290 °C | O=C(O)c1cccc2c1[nH]c1c(Cl)c(Cl)ccc12
159 °C | Cc1nc(NCC(=O)c2ccccc2)c2cc(C)sc2n1
113 to 114 °C | CC(=O)c1ccc(NS(C)(=O)=O)c(Oc2ccccc2)c1
223 to 224 °C | COC(=O)c1ccc(CNC(=O)c2[nH]c(-c3ccoc3)cc2-c2ccc(O)cc2)cc1
94 to 96 °C | CN(C)C(=O)C(C)(C)n1ccc(-c2cc(Cl)ccc2Cl)n1
204 to 206 °C | CN1CCN(C(=O)c2ccc(-c3cnc4c(c3)N(Cc3cc(F)ccc3F)C(=O)C(C)(C)N4)cc2)CC1
221 °C | Cc1nc(Cl)c2c(c1O)COC2(c1ccccc1)c1cccc(Cl)c1Cl (stereo not given)
160 to 161 °C | COc1ccc(CN2C(=O)C(Oc3ccccc3)C2c2ccc(C(=O)O)cc2)cc1OC (stereo not given)
189 °C | Clc1ccc2c(c1)N(c1ncnc3cc(Cl)ccc13)CC2
191 to 192 °C | COc1ccc(-c2nc(C(=O)C(F)(F)F)[nH]c2-c2ccc(OC)cc2)cc1
183 to 184 °C | CCNC(=O)c1sc(-n2ccc(O)cc2=O)cc1C
185 °C | COc1ccc(CNc2ncccc2C(=O)Nc2cccc(C(F)(F)F)c2)cn1
95 to 97 °C | C=CC(=O)OC12Oc3cc(C(C)C)ccc3C1(O)C(=O)c1ccccc12 (stereo not given)
71 to 72 °C | O=C(O)c1oc2ccc(Cl)cc2c1-c1ccccc1C(F)(F)F
127 °C | N#Cc1cc(F)c(NC(=O)C=C(N)C(F)(F)F)cc1F

melting point | SMILES
252 to 254 °C | COc1cc2ncnc(N3CCN(C(=O)Nc4ccc(N(C)C)cc4)CC3)c2cc1OC
256 to 257 °C | CCCc1ccc(-c2nc(C)c(C(C)=NNC(=N)N)s2)cc1
132 to 134 °C | O=C(NC1CCCCC1)c1cccc(Cn2cnc3ccccc32)c1
184 to 186 °C | COCCNC(=O)Cn1nc(-c2ccccc2O)nc1-c1ccccc1O
111 to 112 °C | CCCc1c(OCCCOc2ccc(CC(=O)O)cc2Br)ccc(C(C)=O)c1O
76 to 78 °C | CCNc1nc(NCc2ccco2)nc(Nc2ccc(O)cc2)n1
220 to 221 °C | CCn1cc(C(=O)O)c(=O)c2cc(F)c(N3CCN(Cc4ccc(N)cc4)CC3)c(F)c21
104 °C | CCCC(c1ccc(C(=O)OC)cc1OCc1ccc(Cl)cc1Cl)n1ccnc1 (stereo not given)
150 to 152 °C | CC(C)CCS(=O)(=O)NC(=O)/C=C/c1cc(OC2CCOCC2)nn1Cc1ccc(C(F)(F)F)cc1Cl
246 °C | CC(=O)N1c2ccc(-c3ccc(C(=O)O)cc3)cc2C(Nc2ccccc2)CC1C (stereo not given)
157 to 159 °C | CCOC(=O)c1cn(-c2nc(C)ns2)c2cc(F)c(F)cc2c1=O
121 to 122 °C | Cc1ccc(-c2nc3ccccc3o2)cc1F
88 to 90 °C | CCOC(=O)c1c(-c2ccccc2)c(-c2ccc(F)cc2)c(C=O)n1C(C)C
> 300 °C | CNC(=O)c1cccc(Nc2ncnc3[nH]cc(C(=O)c4ccccc4C)c23)c1
231 to 232 °C | COC(=S)c1cccc2nc(C)n(Cc3ccc(-c4ccccc4-c4nc(=O)o[nH]4)cc3)c12
73.8 to 76 °C | CC(C)=CCn1c(-c2ccc3c(c2)OCO3)nc2ccccc21
95 to 96 °C | N#Cc1ncn(Cc2ccc(Cl)c(Cl)c2)c1C#N
186 to 188 °C | Nc1nc2ccccc2c2c1ncn2CCOCCCc1ccccc1C(=O)O
114 to 116 °C | COc1c(OCc2ccccc2)cnc(CNc2nc(C)nc(C)c2Cl)c1C
222 to 223 °C | CN(c1cc(OC(F)(F)F)cc2cc(C(=O)NCCSC(c3ccccc3)(c3ccccc3)c3ccccc3)[nH]c12)S(=O)(=O)c1cccs1
185 to 187 °C | CCOCc1nc2c(N)nc3cc(-c4cccc(C(=O)N5CCCC5)c4)cnc3c2n1CC(C)(C)O
174 °C | NS(=O)(=O)Nc1cccc(-c2cccc(-c3nc(-c4ccc(C(F)(F)F)cc4)cc(C(F)(F)F)n3)c2)c1
220 to 222 °C | Cn1cc(C(=O)NCc2ccc(Cl)cc2)c(=O)c2cc(CN3CCOCC3)cc(C#CCN3CCS(=O)(=O)CC3)c21
187 to 188 °C | COC(=O)c1cn2c(-c3ccc4ccccc4c3)csc2n1
